{
  "source": "patent US20120189546A1",
  "about": "“Radiolabelling Method Using Cycloalkyl Groups” (BAYER PHARMA AKTIENGESELLSCHAFT, priority 2009, published 2012)",
  "key": {"[1]": {"tested_on": "A549 cells", "experiment": "Cell uptake of [18F] compound 32b into A549 cells", "assay_type": "cell-based, human", "method": "We studied the uptake of the radiolabeled [^18F] compound 32b into A549 cells, 90000 A549 cells were seeded per cavity of a 48 well incubation plate (Becton Dickinson; Cat. 353078) and incubated for 2 days in RPMI 1640 with GlutaMAX (Invitrogen; Cat. 31331) medium supplemented with 10% FCS in an incubator (37° C., 5% CO2). Cells were washed once with PBS and then incubated for 10-30 minutes at 37° C. in PBS with 0.25 MBq of compound 32b ([^18F] labeled). After incubation, the cells were washed once with cold PBS, lysed with 1M NaOH, and finally lysates were measured in a gamma counter."}, "[2]": {"tested_on": "A549 human lung carcinoma cell line", "experiment": "[H-3]-D-Tyrosine uptake competition in A549 cells", "assay_type": "cell-based", "settings": "30 min, 100 μM competitor, 2.8% without competitor", "method": "Cells were seeded 1-2 days prior to the assay and grown until sub-confluency in 48 well plates. Prior to the assay the cell culture medium was removed and the cells were washed with phosphate buffered saline (PBS)+0.1% Bovine serum albumin (BSA). After adding the assay buffer (PBS+0.1% BSA), 37 KBq of the radiotracer [H-3]-D-Tyrosine was added immediately and was incubated with cells at 37° C. in a humidified atmosphere containing 5% CO2 for 30 min. For investigation of transporter characteristics and competitions, the cells were coincubated with 100 μM F-DOPA or compound 29 (FCBT) for 30 min to monitor radioactivity uptake. To stop tracer uptake the incubation buffer was removed after 30 min, the cells were washed and lysed with 1 M sodium hydroxide. Subsequently the amount of radioactivity in the cell lysate was determined in a scintillation counter.\n(§1) Aliquots of the applied tracer amount were measured in a gamma counter to determine the total amount in counts per minute (cpm) together with the samples to correct for tracer decay. Cell numbers per well were determined after detaching cells by trypsinization in 3 wells prior to start of the assay and counted in cell chamber under a microscope. The mean of cells was calculated. To compare tracer uptake between different studies the cell number was normalized to 100,000 cells."}, "[3]": {"molecular_target": "T1, LAT1 (Homo sapiens, UniProt Q01650)", "T1 construct": "endogenous in cells; host or cells: A549 human lung carcinoma cells", "T1 sequence (Q01650 whole entry)": "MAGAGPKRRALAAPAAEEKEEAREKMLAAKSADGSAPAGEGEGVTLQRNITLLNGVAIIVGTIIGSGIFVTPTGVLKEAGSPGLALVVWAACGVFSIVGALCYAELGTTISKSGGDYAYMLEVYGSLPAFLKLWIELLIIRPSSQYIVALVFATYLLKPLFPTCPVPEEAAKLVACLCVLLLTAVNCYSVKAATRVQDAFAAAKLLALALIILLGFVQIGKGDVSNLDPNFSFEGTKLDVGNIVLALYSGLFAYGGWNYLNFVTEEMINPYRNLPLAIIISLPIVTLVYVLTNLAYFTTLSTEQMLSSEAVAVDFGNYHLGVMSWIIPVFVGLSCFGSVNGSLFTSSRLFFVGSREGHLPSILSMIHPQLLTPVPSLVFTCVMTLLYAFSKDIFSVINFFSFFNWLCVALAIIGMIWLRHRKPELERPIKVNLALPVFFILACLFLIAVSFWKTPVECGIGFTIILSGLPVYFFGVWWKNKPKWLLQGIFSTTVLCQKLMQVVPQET", "T1 sequence (P08195 102-630 partner)": "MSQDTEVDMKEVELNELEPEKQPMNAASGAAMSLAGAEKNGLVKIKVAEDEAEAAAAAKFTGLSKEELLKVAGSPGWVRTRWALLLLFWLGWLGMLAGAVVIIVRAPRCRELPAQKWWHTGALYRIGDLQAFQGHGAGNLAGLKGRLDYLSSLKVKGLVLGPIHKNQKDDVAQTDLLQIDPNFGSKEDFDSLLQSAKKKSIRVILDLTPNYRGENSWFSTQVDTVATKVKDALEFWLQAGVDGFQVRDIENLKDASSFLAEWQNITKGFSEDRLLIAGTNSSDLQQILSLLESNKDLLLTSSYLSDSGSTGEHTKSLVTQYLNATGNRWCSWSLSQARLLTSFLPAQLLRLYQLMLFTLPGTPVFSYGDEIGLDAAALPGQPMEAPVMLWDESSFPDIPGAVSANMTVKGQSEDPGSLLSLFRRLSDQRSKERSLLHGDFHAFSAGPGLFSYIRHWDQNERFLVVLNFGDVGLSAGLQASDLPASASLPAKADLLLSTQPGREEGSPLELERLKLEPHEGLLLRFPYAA", "experiment": "[H-3]-D-Tyrosine efflux experiment in A549 cells (LAT1 substrate test)", "assay_type": "cell-based", "settings": "A549 cells preloaded with [H-3]-D-Tyrosine, 100 μM cold compound, 0.7% without compound", "method": "To study if the compounds are transported by LAT1, the cells were incubated with 37 kBq of the radiotracer [H-3]-D-Tyrosine and was incubated with cells at 37° C. in a humidified atmosphere containing 5% CO2 for 30 min. Then the cells were washed with PBS and fresh assay buffer was added to the cells containing 100 μM concentration of cold compound and the cells were incubated for another 30 min. To stop tracer efflux the incubation buffer was removed after 30 min, the cells were washed and lysed with 1 M sodium hydroxide. Subsequently the amount of radioactivity in the cell lysate was determined in a scintillation counter.\nas §1"}, "[4]": {"tested_on": "rat hepatocytes", "experiment": "In vitro metabolic stability in rat hepatocytes with calculation of hepatic in vivo blood clearance", "assay_type": "in vitro ADME", "settings": "male Wistar rat hepatocytes, 0.5x10^6 cells/ml, 1 μM test compound", "method": "Hepatocytes from Han Wistar rats were isolated via a 2-step perfusion method. After perfusion, the liver was carefully removed from the rat: the liver capsule was opened and the hepatocytes were gently shaked out into a Petri dish with ice-cold WME. The resulting cell suspension was filtered through sterile gaze in 50 mL falcon tubes and centrifuged at 50×g for 3 min at room temperature. The cell pellet was resuspended in 30 mL WME and centrifuged through a Percoll® gradient for 2 times at 100×g. The hepatocytes were washed again with Williams' medium E (WME) and resuspended in medium containing 5% FCS. Cell viability was determined by trypan blue exclusion.\nFor the metabolic stability assay liver cells were distributed in WME containing 5% FCS to glas vials at a density of 0.5×10^6 vital cells/ml. The test compound was added to a final concentration of 1 μM. During incubation, the hepatocyte suspensions were continuously shaken and aliquots were taken at 2, 8, 16, 30, 45 and 60 min, to which equal volumes of cold methanol were immediately added. Samples were freezed at −20° C. overnight, subsequently centrifuged for 15 minutes at 3000 rpm and the supernatant was analyzed with an Agilent 1200 HPLC-system with LCMS/MS detection.\nThe half-life of a test compound was determined from the concentration-time plot. From the half-life the intrinsic clearances were calculated."}, "[5]": {"experiment": "In vitro plasma stability, rat plasma", "assay_type": "in vitro ADME", "settings": "0.3 μM", "method": "(§2) This investigation determines the stability of test compound in plasma of different species. […] Samples were freezed at −20° C. overnight, subsequently centrifuged for 15 minutes at 3000 rpm and the supernatant was analyzed with an Agilent 1200 HPLC-system with LCMS/MS detection.\n(§3) The stability of the test compound was quantified by comparison of the remaining amount at the different time points with the amount of the 0 min sample and is expressed in % of initial concentration."}, "[6]": {"experiment": "In vitro plasma stability, human plasma", "assay_type": "in vitro ADME", "settings": "for MEAN [%] / % v. 0 h: human female plasma, 0.3 μM; for % v. 0 h: single values", "method": "as §2, §3"}},
  "note": "“And” between values parts separate entries of the source, which are not always exact repeats. Equal entries are not always repeated.",
  "data": [
    {"smiles": "N[C@@H](Cc1ccc(O[C@H]2C[C@@H]([18F])C2)cc1)C(=O)O", "note": "[Compound 32b, O-(cis-3-[^18F]Fluorocyclobutyl)-L-tyrosine]", "values": [
      {"measurement": "maximum uptake", "setting": "[1]; A549 cells, after 30 min, 0.25 MBq in PBS, 37° C.", "result": 5.87, "unit": "% applied dose/10^6 cells"},
      {"measurement": "accumulation in tumor cells", "setting": "[1]; all tested tumor cells", "result": "good accumulation"}
    ]},
    {"smiles": "N[C@@H](Cc1ccc(O[C@H]2C[C@@H](F)C2)cc1)C(=O)O.O=C(O)C(F)(F)F", "note": "[Compound 29, O-(cis-3-Fluorocyclobutyl)-L-tyrosine trifluoroacetate salt]", "values": [
      {"measurement": "uptake of the applied [H-3]-D-Tyrosine with compound present in the assay buffer", "setting": "[2]", "result": 1.1, "unit": "%"},
      {"measurement": "amount of D-Tyrosine which remained in the cell after 30 min (efflux)", "setting": "[3]", "result": "0.08 % applied dose/100.000 cells"},
      {"measurement": "CL blood, ws, hep", "setting": "[4]", "result": 7.17, "unit": "mL/min/kg"},
      {"measurement": "MEAN [%]", "setting": "[5]; male, rat, 2 min", "result": 100, "unit": "%"},
      {"measurement": "% v. 0 h", "setting": "[5]; male, rat, 30 min", "result": 124, "unit": "%"},
      {"measurement": "MEAN [%]", "setting": "[5]; male, rat, 30 min", "result": 124, "unit": "%"},
      {"measurement": "MEAN [%]", "setting": "[5]; male, rat, 60 min", "result": 133, "unit": "%"},
      {"measurement": "MEAN [%]", "setting": "[6]; 2 min incubation", "result": 100, "unit": "%"},
      {"measurement": "% v. 0 h", "setting": "[6]; 2 min incubation, trifluoroacetate salt", "result": "96% and 104%"},
      {"measurement": "MEAN [%]", "setting": "[6]; 30 min incubation", "result": 111, "unit": "%"},
      {"measurement": "% v. 0 h", "setting": "[6]; 30 min incubation, trifluoroacetate salt", "result": "121% and 100%"},
      {"measurement": "MEAN [%]", "setting": "[6]; 60 min incubation", "result": 104, "unit": "%"},
      {"measurement": "% v. 0 h", "setting": "[6]; 60 min incubation, trifluoroacetate salt", "result": "104% and 105%"},
      {"measurement": "degradation in human plasma after 60 min", "setting": "[6]", "result": "did not show any degradation"}
    ]},
    {"smiles": "N[C@@H](Cc1ccc(OCCF)cc1)C(=O)O", "note": "[O-(2-[^19F]Fluoroethyl)-L-tyrosine, reference compound]", "values": [
      {"measurement": "MEAN [%]", "setting": "[5]; rat male plasma, 1 min incubation", "result": 100, "unit": "%"},
      {"measurement": "% v. 0 h", "setting": "[5]; rat male plasma, 1 min incubation, single values, listed as FET", "result": "92% and 108%"},
      {"measurement": "MEAN [%]", "setting": "[5]; rat male plasma, 30 min incubation", "result": 109, "unit": "%"},
      {"measurement": "% v. 0 h", "setting": "[5]; rat male plasma, 30 min incubation, single values, listed as FET", "result": "110% and 109%"},
      {"measurement": "MEAN [%]", "setting": "[5]; rat male plasma, 60 min incubation", "result": 119, "unit": "%"},
      {"measurement": "% v. 0 h", "setting": "[5]; rat male plasma, 60 min incubation, single values, listed as FET", "result": "120% and 118%"},
      {"measurement": "MEAN [%]", "setting": "[6]; 1 min incubation", "result": 100, "unit": "%"},
      {"measurement": "% v. 0 h", "setting": "[6]; 1 min incubation, listed as FET", "result": "101% and 99%"},
      {"measurement": "MEAN [%]", "setting": "[6]; 30 min incubation", "result": 103, "unit": "%"},
      {"measurement": "% v. 0 h", "setting": "[6]; 30 min incubation, listed as FET", "result": "101% and 105%"},
      {"measurement": "MEAN [%]", "setting": "[6]; 60 min incubation", "result": 50, "unit": "%"},
      {"measurement": "% v. 0 h", "setting": "[6]; 60 min incubation, listed as FET", "result": "52% and 49%"},
      {"measurement": "degradation in human plasma after 60 min", "setting": "[6]", "result": 50, "unit": "%"}
    ]},
    {"smiles": "N[C@@H](Cc1cc(O)c(O)cc1[18F])C(=O)O", "note": "[F-DOPA, reference compound]", "values": [
      {"measurement": "uptake of the applied [H-3]-D-Tyrosine with compound present in the assay buffer", "setting": "[2]", "result": 1.8, "unit": "%"},
      {"measurement": "amount of D-Tyrosine which remained in the cell after 30 min (efflux)", "setting": "[3]", "result": "0.11 % applied dose/100.000 cells"}
    ]}
  ]
}
